What all share (format): in vivo
One test relates to frill lettuce. The test can be described thus: Frill lettuce hydroponic cultivation test, root dry weight. The conditions noted are these: hydroponics, 60 days cultivation, percentage with non-added group root dry weight as 100%, vitalizer 50-100 ppm by mass. How it is done: Each oligosaccharide prepared in [1. Preparation of oligosaccharide] and each amino acid prepared in [2. Preparation of amino acids] were dissolved in water while stirring with a stirrer in a compositional ratio to 1000 times the plant vitalizer concentration (ppm by mass) in Comparative Examples 1 and 2 and Examples 1 and 6 to 7 listed in the tables, after which the bacteria were removed with a 0.45 μm filter, to obtain plant vitalizer stock solutions.
In the test groups, 150 g of each of the plant vitalizer stock solutions under different conditions was added to and dispersed in 150 L of culture solution prepared for hydroponics (1000-fold dilution), and cultivation was started for each of 120 varieties at a temperature of 20 to 22° C. Cultivation was carried out for a total of 60 days, with a total of 5 times every week after beginning further addition of 150 g of plant vitalizer stock solution, and the root dry weights of the frill lettuce were measured.
The root dry weights were determined by cutting the root parts, drying the cut roots with a constant temperature dryer for 12 hours at 50° C., and then measuring the weights.
The root dry weights in Table 1 are percentages (%) with respect to 100% as the root dry weight in the non-added group without plant vitalizer addition.

Test [1] relates to komatsuna. The test can be described thus: Evaluation of komatsuna elicitor activity (glucanase activity measurement). The conditions noted are these: komatsuna grown 6 days on MS agar medium containing plant vitalizer; glucanase activity (Abs590) of leaf extract; control = Comparative Example 3 without vitalizer. Here is the method:
(i) The plant is sampled and pretreated; (ii) a calibration curve is drawn using BSA as the protein standard (using absorbance at a wavelength (600 nm) in a dye binding method); (iii) the protein concentration of the specimen prepared in (i) is measured; (iv) the glucanase activity of the specimen prepared in (i) is measured.
Each oligosaccharide prepared in [1. Preparation of oligosaccharide] and each amino acid prepared in [2. […] Each stock solution was diluted 1000-fold with water and used for the following cultivation test.
Murashige and Skoog (MS) agar medium was used for raising of the komatsuna.
High-pressure steam sterilized MS medium was transferred into a plant box on a clean bench and thoroughly cooled, and then komatsuna (“Wakami”, Sakata Seed Corp.) were seeded in a count of 10 each. They were then grown for 6 days with long-day conditions of 24 hours in a lighted room at 22° C.
After adding 300 μl of the prepared protein extraction buffer into a 1.5 ml tube equipped with a Biomasher (Nippi, Inc.), leaves (plant body) sampled and cut with scissors to approximately 4×4 mm were added. The procedure was carried out 5 times for each sample. A stirring rod was then rotated by hand to break up the plant body until the solid portion was generally no longer visible. Centrifugal separation was carried out under conditions of 15,000×g, 10 minutes, 4° C., and the aqueous layer was collected into a fresh 1.5 ml tube to prepare a liquid extract.
A 2 mg/ml portion of bovine serum albumin (BSA) of known purity was serially diluted (1/2, 1/4, 1/8, 1/16, 1/32 and 1/64 dilution) to prepare standards. The prepared standards were used to determine the average absorbance at 600 nm (Abs600), and a calibration curve was drawn (n=3). After injecting 300 μl of Coomassie Brilliant Blue (CBB) solution into a 96-well plate, 6 μl of the prepared liquid extract was added. The Abs600 was then measured. The blank used was MilliQ. The absorbance of the liquid extract was fitted onto the calibration curve drawn with the 2 mg/ml of serially diluted BSA, to determine the protein concentration.
Dilution was carried out to a constant liquid extract concentration using the determined values, and the diluted extract was used for the following glucanase activity measurement.
In a 1.5 ml tube there were mixed 100 μl of a B-HS substrate solution prepared by suspending one tablet of B-HS reagent (Megazyme Co.) in 10 ml of MilliQ, 50 μl of 0.2 M phosphate buffer solution (pH 6.0) and 50 μl of the previously prepared diluted solution or ultrapure water (blank), to prepare samples for each of the Comparative Examples and Examples. Enzyme reaction was conducted for 1 hour and 30 minutes in a water bath at 30° C., shaking the sample well every 15 minutes. A 100 μl portion of 0.2 N NaOH as reaction stop solution (total: 300 μl) was added to stop the reaction.

For test [2], the system named is komatsuna. The test can be described thus: Measurement of komatsuna fresh weight after foliar application. Particulars: komatsuna raised 34 days in soil, vitalizer applied to leaves at one-week intervals; control = Comparative Example 11 without vitalizer. Here is the method: Each oligosaccharide prepared in [1. […] Each stock solution was diluted 1000-fold with water and used for the following cultivation test. A sample was prepared with […] Corp.) as the plant crop, organic vegetable soil (Hirota Shoten) as the soil and Shin-Taki Organic Liquid Fertilizer #3 (Taki Chemical Co., Ltd.) as the fertilizer. After sprouting the plants on filter paper, they were planted into a 25-hole connected pot (280×280 mm overall, with holes of 50×50×50 mm) containing culturing soil and fertilizer.

These results are taken from patent US12478001B2, “Plant activator containing amino acid or salt thereof, and oligosaccharide, and use thereof” (priority 2019, dated 2025).

`NCC(=O)O` [Comparative Example 2, Glycine]: the “Increase in root dry weight with respect to non-added group (measured n = 5)” value in the test with frill lettuce is 112%.
As to `NCCCC[C@H](N)C(=O)O` [Comparative Example 6, Lysine], the “Elicitor activity (compared to control as 100)” value in the test on komatsuna [1] came to 104.
Still for that read-out and setting: the result for `NCC(=O)O` [compound 5, Glycine] reads 141.
Same read-out and setting: the result for `N[C@@H](CCC(=O)[O-])C(=O)[O-].[Na+].[Na+]` [compound 7, Sodium glutamate] reads 82; that for `N[C@@H](Cc1c[nH]cn1)C(=O)O` [compound 8, Histidine], 89; that for `C[C@H](N)C(=O)O` [compound 9, Alanine], 72.
Turning to `N=C(N)NCCC[C@H](N)C(=O)O` [compound 10, Arginine], the “Elicitor activity (compared to control as 100)” value in the test with komatsuna [1] is listed as 79.
Regarding `N[C@@H](Cc1c[nH]cn1)C(=O)O` [compound 12, Histidine], the “Fresh weight (compared to control as 100)” value with komatsuna [2] is recorded as 92%.
`NCC(=O)O` [compound 13, Glycine]: the “Fresh weight (compared to control as 100)” value in the test on komatsuna [2] is reported as 102%.
On the same count and under the same terms, the result for `N[C@@H](CCC(=O)[O-])C(=O)[O-].[Na+].[Na+]` [compound 14, Sodium glutamate] reads 89%.
